Patent US4845219A, “Nitrogen- and sulfur-containing lipid compounds their production and use” (Takeda Chemical Industries, Ltd., priority 1986, dated 1989)
Structures can show the parent of a compound that is named as a salt.

Tests used:
[1] = system: human myelogenic leukaemia cells HL-60; assay: Proliferation inhibiting activity against HL-60 (Test Example 3); assay type: cell-based; details: HL-60 cells, read-out: Inhibitory concentration against HL-60 (IC50, μg/ml)
Procedure: Proliferation inhibiting activity (IC50) of the compound of the present invention againsts human myelogenic leukaemia cells HL-60 was measured according to the method of R. Gallo et al [Blood, vol.

[2] = system: platelet aggregation by PAF, washed PRP; assay: PAF inhibiting activity in platelet aggregation (Test Example 4); assay type: cell-based; details: Oryctolagus cuniculus, PAF 3×10^-7 M, rabbit washed PRP, 37° C., relative to maximum aggregation of control PRP by PAF, read-out: Inhibiting Ratio; for inhibition at 30 µM: medicine concentration 3 × 10^-5 M; for inhibition at 3 µM: medicine concentration 3 × 10^-6 M
Procedure: Using a syringe containing 3.15% citric acid (1 part per 9 parts of blood) as a blood coagulation inhibitor, blood was taken from male rabbit. The blood was then centrifuged at 1000 rpm at room temperature for 10 minutes to obtain a platelet rich plasma (PRP). This PRP was further centrifuged at 1400 rpm for 15 minutes to obtain a platelet pellet. The pellet was suspended in Ca^++ -free Tyrode containing 0.25% gelatin to obtain washed PRP. This PRP (250 μl) was stirred at 37° C. for 2 minutes, to which was then added 25 μl of a 0.2-0.5 mM Ca^++ solution. After this mixture had been stirred for 30 seconds, a medicine to be tested was added thereto. After 2 minutes stirring, 3×10^-7 M of PAF was added to the mixture. Pellet aggregation was measured by means of a platelet aggregometer (manufactured by Rika Denki, Japan). The activity of the test samples was determined in terms of an inhibiting ratio relative to the maximum transmittance (maximum aggregation ratio) of control PRP by PAF.

[3] = system: MM46 cells; assay: Life-span prolongation of MM46-inoculated C3H/He mice (Test Example 2); assay type: in vivo; details: MM46 1×10^4 cells/mouse i.p.; for Life-Span Prolongation Ratio (T/C, %): 0.25 mg/mouse i.p. for consecutive 4 days from second day after inoculation, only mice of survival days less than 60 days, control = 100; for No. of survivors/No. of tested mice: 0.25 mg/mouse i.p. for consecutive 4 days, 60th day, control 0/5
Procedure: C3H/He mice (a group consisting of five mice) were inoculated intraperitoneally with 1×10^4 MM46 cells per mouse, and each mouse was intraperitoneally given 0.25 mg of drug for consecutive 4 days, starting from the second day after the inoculation. Shown in Table 2 are the life-span prolongation ratio ragarding the died mice in the group treated with drug against those in the control group not treated with drug (only related to mice of survival days less than 60 days) and the number of survived mice on the 60th day after the inoculation of MM46.

[4] = system: Sarcoma 180 cells; assay: Life-span prolongation of Sarcoma 180-inoculated ICR mice (Test Example 1); assay type: in vivo; details: Sarcoma 180 1×10^5 cells/mouse i.p.; for Life-Span Prolongation Ratio (T/C, %): 0.33 mg/mouse i.p. three times (1 hour, 1 day, 2 days after inoculation), only mice of survival days less than 60 days, control = 100; for 60th day: No. of survivors/No. of tested mice: 0.33 mg/mouse i.p. three times, control 0/5
Procedure: ICR mice (a group consisting of five mice) were inoculated intraperitoneally with 1×10^5 Sarcoma 180 cells per mouse, and then given intraperitoneally 0.33 mg/mouse of the compound prepared in the present invention dissolved in physiological saline, three times in total, 1 hour, 1 day and 2 days after the inoculation. Also, the control compound [III] was given to mice under the same conditions. Shown in Table 1 are the life-span prolongation ratio against the control group not treated with drug (only related to mice of survival days less than 60 days) and the number of survived mice on the 60th day after the initiation of the test.

[5] = literature; cited from earlier work
[6] = system: platelets; details: literature; cited from earlier work
[7] = system: tumor cells; details: compound [III], literature; cited from earlier work

Structure (SMILES) | IC50 [1] | inhibition at 30 µM [2] | inhibition at 3 µM [2] | Life-Span Prolongation Ratio (T/C, %) [3] | No. of survivors/No. of tested mice [3] | Life-Span Prolongation Ratio (T/C, %) [4] | 60th day: No. of survivors/No. of tested mice [4] | hypotensive and other side-effect activity [5] | platelet activating / aggregating activity [6] | anti-tumor activity [7]
CCCCCCCCCCCCCCCCCCOCC(CSCCC[N+](C)(C)C)OC.CS(=O)(=O)[O-] (centres unmarked) [Example 38, 3-[(2-methoxy-3-octadecyloxypropyl)thio]propyltrimethylammonium mesylate] | 5 µg/mL | – | – | – | – | – | – | – | – | –
CCCCCCCCCCCCCCCCCCOCC(CS(=O)(=O)CCC[n+]1ccccc1)OC (centres unmarked) [Example 45, N[3-((2-Methoxy-3-octadecyloxypropyl)sulfony)propyl]pyridinium mesylate] | 1.25 µg/mL | 100% | 82% | – | – | – | – | – | – | –
CCCCCCCCCCCCCCCCCCOCC(CCS(=O)(=O)CCC[n+]1ccsc1)OC.CS(=O)(=O)[O-] (centres unmarked) [Example 48, N-[3-((3-Methoxy-4-octadecyloxybutyl)sulfonyl)propyl]thiazolium mesylate] | 2.5 µg/mL | 100% | 65% | – | – | – | – | – | – | –
CCCCCCCCCCCCCCCCCCOCC(CS(=O)(=O)CCC[N+](C)(C)C)OC.CS(=O)(=O)[O-] (centres unmarked) [Example 30, 3-[(2-methoxy-3-octadecyloxypropyl)sulfonyl]propyltrimethylammonium mesylate] | 1.25 µg/mL | – | – | 225% | 4/5 | 350% | 0/5 | – | – | –
CCCCCCCCCCCCCCCCCCOCC(COP(=O)([O-])OCC[N+](C)(C)C)OC (centres unmarked) [Compound [III], reference compound] | – | – | – | 155% | 0/5 | 162% | 0/5 | hypotensive activity and local stimulating activity | platelet activating property | anti-tumor activity
CCCCCCCCCCCCCCCCCCOCC(CCS(=O)(=O)CCC[N+](C)(C)C)OC.CS(=O)(=O)[O-] (centres unmarked) [Example 36, 3-[(3-methoxy-4-octadecyloxybutyl)sulfonyl]propyltrimethylammonium mesylate] | 2.5 µg/mL | – | – | – | – | 242% | 1/5 | – | – | –
CCCCCCCCCCCCCCCCCCOCC(CCS(=O)(=O)CCC[n+]1ccccc1)OC.CS(=O)(=O)[O-] (centres unmarked) [Example 47, N-[3-((3-Methoxy-4-octadecyloxybutyl)sulfonyl)propyl]pyridinium mesylate] | 1.25 µg/mL | 100% | 73% | – | – | – | – | – | – | –
CCCCCCCCCCCCCCCCCCOCC(CC[S+]([O-])CCC[N+](C)(C)C)OC.CS(=O)(=O)[O-] (centres unmarked) [Example 37, 3-[(3-methoxy-4-octadecyloxybutyl)sulfinyl]propyltrimethylammonium mesylate] | 2.5 µg/mL | – | – | – | – | 326% | 0/5 | – | – | –
CCCCCCCCCCCCCCCCCCNC(=O)OCC(CS(=O)(=O)CCC[n+]1ccccc1)OC (centres unmarked) [Example 46, N-[3-((2-Methoxy-3-octadecylcarbamoyloxypropyl)sulfonyl)propyl]-pyridinium mesylate] | – | 100% | 100% | – | – | – | – | – | – | –
CCCCCCCCCCCCCCCCCCOCC(CS(=O)(=O)CCCCCC[N+](C)(C)C)OC.CS(=O)(=O)[O-] (centres unmarked) [Example 31, 6-[(2-methoxy-3-octadecyloxypropyl)sulfonyl]hexyltrimethylammonium mesylate] | 5 µg/mL | 100% | 100% | – | – | 273% | 0/5 | – | – | –
